Test [1] deals with T1, TP^Δ328 (Homo sapiens, UniProt P21731).
T1 construct: expressed in transfected cells
T1 sequence (P21731 1-328): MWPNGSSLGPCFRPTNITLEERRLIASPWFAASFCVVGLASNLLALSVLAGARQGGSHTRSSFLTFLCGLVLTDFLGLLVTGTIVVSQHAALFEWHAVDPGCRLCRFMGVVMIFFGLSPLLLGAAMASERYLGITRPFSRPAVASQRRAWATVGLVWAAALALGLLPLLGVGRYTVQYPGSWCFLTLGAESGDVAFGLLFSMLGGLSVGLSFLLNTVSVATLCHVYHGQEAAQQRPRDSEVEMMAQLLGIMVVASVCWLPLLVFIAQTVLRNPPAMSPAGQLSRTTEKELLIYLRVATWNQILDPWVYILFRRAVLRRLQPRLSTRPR
The test is described as follows: Intracellular calcium mobilization, HEK.TP^Δ328 cells. The class given is cell-based. As to conditions: for Δ[Ca2+]i, U46619-induced: HEK.TP^Δ328. On the procedure:
(§1) Measurement of intracellular calcium mobilization ([Ca^2+]i) in FURA2/AM preloaded HEK 293 cell lines (2 × 10^6 cells/dish), each transiently co-transfected with pADVA (10 μg), and pCMV:Gαq (25 μg), was carried out as previously described. To investigate the effect of GRK2/βARK1 on TP-mediated [Ca^2+]i mobilization, HEK.TPα or HEK.TPβ cells (2 × 10^6 cells/dish) were co-transfected with pADVA (10 μg), pCMV:Gαq (25 μg) along with pRK5:βARK1^495–689 (25 μg), encoding a dominant negative form of GRK2/βARK1[39]. Approximately 48 h post-transfection, cells were harvested by scraping, washed twice in ice-cold PBS and resuspended in HBSSHB (modified Ca^2+/Mg^2+-free Hank's buffered salt solution, containing […], pH 7.67, 0.1% bovine serum albumin (BSA)) buffer at 10^7 cells/ml and incubated in the dark with 5 μM FURA2/AM for 45 min at 37 °C. Cells were collected by centrifugation (900×g, 5 min), washed once in an equal volume of HBSSHB, and were finally resuspended in HBSSHB buffer at 10^7 cells/ml and kept at room temperature in the dark for 40 min. For each measurement of [Ca^2+]i mobilization, aliquots of cells were diluted to 0.825 × 10^6 cells/ml in HBSSHB, 1 mM CaCl2 and FURA2 fluorescence was recorded (2 ml aliquots of cells) at 37^ °C with gentle stirring with a Perkin Elmer-Cetus LS50-B spectrofluorometer at excitation wavelengths of 340 nm and 380 nm and emission wavelength of 510 nm, respectively.
(§2) Cells were stimulated with the TP agonist U46619 (1 μM) and changes in [Ca^2+]i mobilization were monitored as a function of time. To assess agonist-mediated homologous desensitization, cells (0.825 × 10^6 cells/ml; 2 ml per assay) were stimulated with 1 μM U46619 (Primary stimulation) or, as a control, with the vehicle for 4 min; thereafter, cells were collected by centrifugation (900×g, 5 min); were washed twice in 2 ml HBSSHB, 1 mM CaCl2; and finally resuspended in 2 ml HBSSHB,1 mM CaCl2 and were left to recover over various time intervals (ranging from 0 to 60 min); thereafter, cells re-stimulated with 1 μM U46619 (Secondary stimulation) and changes in [Ca^2+]i mobilization were monitored as a function of time. To assess the role of protein kinase (PK) A, PKC or PKG on U46619-mediated desensitization of TPα signalling, cells were pre-incubated with the PKA inhibitor H-89 (10 μM), the PKC inhibitor GF 109203X (50 nM) or the PKG inhibitor KT 5823 (50 nM), for 15 min and respective kinase inhibitors were maintained throughout the primary/secondary U46619-stimulations and during the washes.
The vehicle had no effect on U46619-mediated [Ca^2+]i mobilization. Calibration of the signal was performed in each sample by adding 0.2% Triton X-100 to obtain the maximal fluorescence ratio (Rmax) and then 1 mM EGTA to obtain the minimal fluorescence ratio (Rmin). The ratio of the fluorescence at 340 nm to that at 380 nm is a measure of [Ca^2+]i, which assumes a Kd of 225 nM Ca^2+ for FURA2/AM. The results presented in the figures are representative data from at least three or four independent experiments and are plotted as changes in Ca^2+i mobilized (Δ[Ca^2+]i (nM)) as a function of time (s) upon ligand stimulation. Changes in [Ca^2+]i mobilization were determined by measuring peak rises in [Ca^2+]i mobilized (Δ[Ca^2+]i) and were calculated as mean changes in Δ[Ca^2+]i ± S.E.M. (nM).
A general note: A change in cytosolic calcium serves as a functional read-out for many receptors and channels.

Test [2] addresses T2, TPα^S329,331A (Homo sapiens, UniProt P21731, S329A/S331A).
T2 construct: expressed in transfected cells
T2 sequence (P21731 1-343 S329A/S331A): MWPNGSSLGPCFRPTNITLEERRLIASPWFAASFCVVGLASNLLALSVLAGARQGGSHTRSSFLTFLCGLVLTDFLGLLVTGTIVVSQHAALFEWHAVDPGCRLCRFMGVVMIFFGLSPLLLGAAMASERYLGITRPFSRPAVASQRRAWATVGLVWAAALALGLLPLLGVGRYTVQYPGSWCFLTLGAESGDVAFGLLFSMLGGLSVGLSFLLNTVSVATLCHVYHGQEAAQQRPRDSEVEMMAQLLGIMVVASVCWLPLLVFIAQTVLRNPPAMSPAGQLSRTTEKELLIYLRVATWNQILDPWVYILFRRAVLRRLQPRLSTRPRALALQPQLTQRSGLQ
The test is described as follows: Intracellular calcium mobilization, HEK.TPα^S329,331A cells. Particulars: for Δ[Ca2+]i, U46619-induced: HEK.TPα^S329,331A. The format is cell-based. As to the method: as §1, with “Cells were collected by centrifugation (900×g, 5 min), washed once in an equal volume of HBSSHB, and were finally resuspended in HBSSHB buffer at 10^7 cells/ml and kept at room temperature in the dark for 40 min.” left out
as §2, with “To assess the role of protein kinase (PK) A, PKC or PKG on U46619-mediated desensitization of TPα signalling, cells were pre-incubated with the PKA inhibitor H-89 (10 μM), the PKC inhibitor GF 109203X (50 nM) or the PKG inhibitor KT 5823 (50 nM), for 15 min and respective kinase inhibitors were maintained throughout the primary/secondary U46619-stimulations and during the washes.” left out

Setting [3] is: secondary 1 μM U46619 at 15 min.

These results are taken from article PMC2680961, “Homologous desensitization of signalling by the alpha (α) isoform of the human thromboxane A2 receptor: A specific role for nitric oxide signalling” (Biochimica et Biophysica Acta, 2007).

Structures are written as SMILES.

Consider `CCCCC[C@H](O)/C=C/[C@@H]1[C@@H](C/C=C\CCCC(=O)O)[C@H]2CO[C@@H]1C2` [U46619], for which the “Δ[Ca2+]i, U46619-induced” value was 180 ± 5.6 nM in test [1] (primary stimulation, 1 μM U46619 4 min); 158 ± 3.8 nM in test [1] (setting [3]); 178 ± 6.7 nM in test [1] (secondary 1 μM U46619 at 60 min); 176 ± 9.4 nM in test [2] (primary 1 μM U46619 4 min); 63 ± 4.4 nM in test [2] (setting [3]). In addition, the “secondary U46619 [Ca2+]i response relative to primary response” value in test [1] (TP^Δ328, restimulation at 15 min) is about 80%; in test [2] (printed as TPα^S239,331A, Fig. 6A and B), 36%.
